From patent US7786141B2 (Vertex Pharmaceuticals Incorporated, priority 2004, dated 2010)

Tests used:
M4 muscarinic receptor = target: T1, M4 muscarinic receptor (Homo sapiens, UniProt P08173); assay: Functional mobilization of intracellular calcium (FLIPR) in M4-CHO cells; format: cell-based; conditions: M4 receptor, calcium mobilization; for Emax: read-out: M4 Efficacy
T1 construct: expressed in transfected cells; host or cells: CHO (M4-CHO)
T1 sequence (P08173 1-479): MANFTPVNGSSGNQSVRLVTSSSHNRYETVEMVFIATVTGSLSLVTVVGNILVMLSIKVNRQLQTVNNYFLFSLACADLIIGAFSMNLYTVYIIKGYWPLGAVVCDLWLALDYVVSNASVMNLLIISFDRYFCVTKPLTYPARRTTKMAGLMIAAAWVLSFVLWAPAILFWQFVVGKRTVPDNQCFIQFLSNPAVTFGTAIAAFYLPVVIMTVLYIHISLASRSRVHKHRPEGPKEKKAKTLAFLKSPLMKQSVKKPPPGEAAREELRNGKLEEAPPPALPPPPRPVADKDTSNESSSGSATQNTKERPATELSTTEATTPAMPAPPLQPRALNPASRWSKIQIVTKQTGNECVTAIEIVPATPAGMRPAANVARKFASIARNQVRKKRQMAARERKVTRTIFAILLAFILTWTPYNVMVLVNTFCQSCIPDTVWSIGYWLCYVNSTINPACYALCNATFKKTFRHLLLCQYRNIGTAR
In short: (§1)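 Two modes: direct compound addition for agonism, or 15 min compound pre-incubation (or co-application) before carbachol at EC80 for inhibition. Calcium signal from Fluo-3 AM or Calcium 3 dye in CHO cells, 1 mM probenecid, pH 7.4, read 60 sec at 488/540 nm; DMSO 0.5% final.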

M1 muscarinic receptor = target: T2, M1 muscarinic receptor (Homo sapiens, UniProt P11229); assay: Functional mobilization of intracellular calcium (FLIPR) in M1-CHO cells; format: cell-based; conditions: M1 receptor, calcium mobilization; for Emax: read-out: M1 Efficacy
T2 construct: expressed in transfected cells; host or cells: CHO (M1-CHO)
T2 sequence (P11229 1-460): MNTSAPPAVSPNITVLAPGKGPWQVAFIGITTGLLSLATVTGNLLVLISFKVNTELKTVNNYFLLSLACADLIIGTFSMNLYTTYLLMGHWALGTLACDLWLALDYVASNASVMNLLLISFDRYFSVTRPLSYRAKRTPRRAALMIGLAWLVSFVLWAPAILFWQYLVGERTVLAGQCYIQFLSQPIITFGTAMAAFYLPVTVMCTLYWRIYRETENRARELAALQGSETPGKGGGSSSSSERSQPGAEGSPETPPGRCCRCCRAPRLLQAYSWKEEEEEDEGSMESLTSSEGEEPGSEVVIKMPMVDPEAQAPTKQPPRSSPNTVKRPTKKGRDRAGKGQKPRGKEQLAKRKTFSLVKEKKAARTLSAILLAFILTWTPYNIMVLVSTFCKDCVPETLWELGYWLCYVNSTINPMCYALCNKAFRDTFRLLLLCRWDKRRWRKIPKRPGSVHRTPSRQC
In short: as §1

Compound: CC#CCOC(=O)N1CCC(N2CCC3(CC2)CN(C(C)=O)c2ccc(F)cc23)CC1 [compound 102]
- M4 Activity (M4 muscarinic receptor): xx (activity was measured to be between 0.1 μM and 1.0 μM)
- Emax (M4 muscarinic receptor): 65 to 85%
- M1 Activity (M1 muscarinic receptor): xxx (activity was measured to be less than 0.1 μM)
- Emax (M1 muscarinic receptor): 65 to 85%

Compound: CCOC(=O)N1C2CCC1CC(N1CCC3(CC1)CN(S(C)(=O)=O)c1ccc(F)cc13)C2 (stereo not drawn) [compound 103]
- M4 Activity (M4 muscarinic receptor): xx (activity was measured to be between 0.1 μM and 1.0 μM)
- Emax (M4 muscarinic receptor): < 65%
- M1 Activity (M1 muscarinic receptor): xxx (activity was measured to be less than 0.1 μM)
- Emax (M1 muscarinic receptor): 65 to 85%

Compound: O=C1CC2(CCN(C[C@H]3C[C@H]4C=C[C@H]3C4)CC2)c2ccccc21 [compound 104]
- M4 Activity (M4 muscarinic receptor): x (activity was measured to be greater than 1.0 μM)
- Emax (M4 muscarinic receptor): < 65%
- M1 Activity (M1 muscarinic receptor): xxx (activity was measured to be less than 0.1 μM)
- Emax (M1 muscarinic receptor): 65 to 85%

Compound: CCOC(=O)N1CCC(N2CCC3(CC2)CN(C(C)=O)c2ccc(-c4ccncc4)cc23)CC1 [compound 105]
- M4 Activity (M4 muscarinic receptor): x (activity was measured to be greater than 1.0 μM)
- Emax (M4 muscarinic receptor): < 65%
- M1 Activity (M1 muscarinic receptor): xx (activity was measured to be between 0.1 μM and 1.0 μM)
- Emax (M1 muscarinic receptor): < 65%

Compound: COCCOC(=O)N1C2CCC1CC(N1CCC3(CC1)CN(C(=O)OC1CCC1)c1ccc(F)cc13)C2 (stereo not drawn) [compound 106]
- M4 Activity (M4 muscarinic receptor): xx (activity was measured to be between 0.1 μM and 1.0 μM)
- Emax (M4 muscarinic receptor): < 65%
- M1 Activity (M1 muscarinic receptor): xxx (activity was measured to be less than 0.1 μM)
- Emax (M1 muscarinic receptor): 65 to 85%

Compound: CCOC(=O)N1CCC(CN2CCC3(CC2)COc2ccc(F)cc23)CC1 [compound 107]
- M4 Activity (M4 muscarinic receptor): x (activity was measured to be greater than 1.0 μM)
- Emax (M4 muscarinic receptor): < 65%
- M1 Activity (M1 muscarinic receptor): xxx (activity was measured to be less than 0.1 μM)
- Emax (M1 muscarinic receptor): 65 to 85%

Compound: CC(C)OC(=O)N1C2CCC1CC(N1CCC3(CC1)CN(C(=O)N(C)C)c1ccc(F)cc13)C2 (stereo not drawn) [compound 108]
- M4 Activity (M4 muscarinic receptor): xx (activity was measured to be between 0.1 μM and 1.0 μM)
- Emax (M4 muscarinic receptor): < 65%
- M1 Activity (M1 muscarinic receptor): xxx (activity was measured to be less than 0.1 μM)
- Emax (M1 muscarinic receptor): 65 to 85%

Compound: CCOC(=O)N1C2CCC1CC(N1CCC3(CC1)CNc1ccc(C)cc13)C2 (stereo not drawn) [compound 109]
- M4 Activity (M4 muscarinic receptor): xx (activity was measured to be between 0.1 μM and 1.0 μM)
- Emax (M4 muscarinic receptor): < 65%
- M1 Activity (M1 muscarinic receptor): xxx (activity was measured to be less than 0.1 μM)
- Emax (M1 muscarinic receptor): 65 to 85%

Compound: c1ccc2c(c1)NCC21CCN(CC2CC3CCC2C3)CC1 (stereo not drawn) [compound 110]
- M4 Activity (M4 muscarinic receptor): xx (activity was measured to be between 0.1 μM and 1.0 μM)
- Emax (M4 muscarinic receptor): < 65%
- M1 Activity (M1 muscarinic receptor): xxx (activity was measured to be less than 0.1 μM)
- Emax (M1 muscarinic receptor): < 65%

Compound: Fc1ccc2c(c1)C1(CCN(C3CCC4CCC3C4)CC1)CN2 (stereo not drawn) [compound 111]
- M4 Activity (M4 muscarinic receptor): xx (activity was measured to be between 0.1 μM and 1.0 μM)
- Emax (M4 muscarinic receptor): < 65%
- M1 Activity (M1 muscarinic receptor): xxx (activity was measured to be less than 0.1 μM)
- Emax (M1 muscarinic receptor): 65 to 85%

Compound: O=C(O[C@@H]1CCOC1)N1CC2(CCN(C3CC4CCC(C3)N4C(=O)O[C@@H]3CCOC3)CC2)c2cc(F)ccc21 (stereo partly drawn) [compound 112]
- M4 Activity (M4 muscarinic receptor): xx (activity was measured to be between 0.1 μM and 1.0 μM)
- Emax (M4 muscarinic receptor): < 65%
- M1 Activity (M1 muscarinic receptor): xxx (activity was measured to be less than 0.1 μM)
- Emax (M1 muscarinic receptor): 65 to 85%

Compound: CCOC(=O)N1CCC(N2CCC3(CC2)CN(C(C)=O)c2ccc(F)cc23)C1 (stereo not drawn) [compound 113]
- M4 Activity (M4 muscarinic receptor): x (activity was measured to be greater than 1.0 μM)
- Emax (M4 muscarinic receptor): < 65%
- M1 Activity (M1 muscarinic receptor): xxx (activity was measured to be less than 0.1 μM)
- Emax (M1 muscarinic receptor): 65 to 85%

Compound: CCCOC(=O)N1CC2(CCN(C3CCN(C(=O)OCC)CC3)CC2)c2cc(F)ccc21 [compound 114]
- M4 Activity (M4 muscarinic receptor): x (activity was measured to be greater than 1.0 μM)
- Emax (M4 muscarinic receptor): < 65%
- M1 Activity (M1 muscarinic receptor): xx (activity was measured to be between 0.1 μM and 1.0 μM)
- Emax (M1 muscarinic receptor): 65 to 85%

Compound: CCCOC(=O)N1C2CCC1CC(N1CCC3(CC1)CN(C(=O)O[C@@H]1CCOC1)c1ccc(F)cc13)C2 (stereo partly drawn) [compound 115]
- M4 Activity (M4 muscarinic receptor): xx (activity was measured to be between 0.1 μM and 1.0 μM)
- Emax (M4 muscarinic receptor): < 65%
- M1 Activity (M1 muscarinic receptor): xxx (activity was measured to be less than 0.1 μM)
- Emax (M1 muscarinic receptor): 65 to 85%

Compound: Cc1ccc2c(c1)C1(CCN(C3CC4CCC3C4)CC1)CN2C(=O)OC(C)(C)C (stereo not drawn) [compound 116]
- M4 Activity (M4 muscarinic receptor): xx (activity was measured to be between 0.1 μM and 1.0 μM)
- Emax (M4 muscarinic receptor): < 65%
- M1 Activity (M1 muscarinic receptor): xxx (activity was measured to be less than 0.1 μM)
- Emax (M1 muscarinic receptor): 65 to 85%

Compound: COCCOC(=O)N1CC2(CCN(C3CC4CCC(C3)N4C(=O)OCCOC)CC2)c2cc(F)ccc21 (stereo not drawn) [compound 117]
- M4 Activity (M4 muscarinic receptor): xx (activity was measured to be between 0.1 μM and 1.0 μM)
- Emax (M4 muscarinic receptor): < 65%
- M1 Activity (M1 muscarinic receptor): xxx (activity was measured to be less than 0.1 μM)
- Emax (M1 muscarinic receptor): 65 to 85%

Compound: CC(=O)N1CC2(CCN(CC3CC4CCC3C4)CC2)c2cc(C)ccc21 (stereo not drawn) [compound 118]
- M4 Activity (M4 muscarinic receptor): x (activity was measured to be greater than 1.0 μM)
- Emax (M4 muscarinic receptor): < 65%
- M1 Activity (M1 muscarinic receptor): xxx (activity was measured to be less than 0.1 μM)
- Emax (M1 muscarinic receptor): 65 to 85%

Compound: COCCOC(=O)N1C2CCC1CC(N1CCC3(CC1)CN(C(=O)N(C)C)c1ccc(F)cc13)C2 (stereo not drawn) [compound 119]
- M4 Activity (M4 muscarinic receptor): x (activity was measured to be greater than 1.0 μM)
- Emax (M4 muscarinic receptor): < 65%
- M1 Activity (M1 muscarinic receptor): xxx (activity was measured to be less than 0.1 μM)
- Emax (M1 muscarinic receptor): < 65%

Compound: CN(C)C(=O)N1CC2(CCN(C3CCN(C(=O)O[C@H]4CCOC4)CC3)CC2)c2cc(F)ccc21 [compound 120]
- M4 Activity (M4 muscarinic receptor): x (activity was measured to be greater than 1.0 μM)
- Emax (M4 muscarinic receptor): < 65%
- M1 Activity (M1 muscarinic receptor): xx (activity was measured to be between 0.1 μM and 1.0 μM)
- Emax (M1 muscarinic receptor): < 65%

Compound: CS(=O)(=O)N1CC2(CCN(C3CC4CCC(C3)N4C(=O)OC3CCC3)CC2)c2cc(F)ccc21 (stereo not drawn) [compound 122]
- M4 Activity (M4 muscarinic receptor): xx (activity was measured to be between 0.1 μM and 1.0 μM)
- Emax (M4 muscarinic receptor): < 65%
- M1 Activity (M1 muscarinic receptor): xxx (activity was measured to be less than 0.1 μM)
- Emax (M1 muscarinic receptor): 65 to 85%

Compound: O=C(OC1CCC1)N1C2CCC1CC(N1CCC3(CC1)COc1ccc(F)cc13)C2 (stereo not drawn) [compound 123]
- M4 Activity (M4 muscarinic receptor): x (activity was measured to be greater than 1.0 μM)
- Emax (M4 muscarinic receptor): < 65%
- M1 Activity (M1 muscarinic receptor): xx (activity was measured to be between 0.1 μM and 1.0 μM)
- Emax (M1 muscarinic receptor): < 65%

Compound: O=C(OCC(F)(F)F)N1C2CCC1CC(N1CCC3(CC1)COc1ccc(F)cc13)C2 (stereo not drawn) [compound 124]
- M4 Activity (M4 muscarinic receptor): xx (activity was measured to be between 0.1 μM and 1.0 μM)
- Emax (M4 muscarinic receptor): < 65%
- M1 Activity (M1 muscarinic receptor): xxx (activity was measured to be less than 0.1 μM)
- Emax (M1 muscarinic receptor): < 65%

Compound: O=C(OC1CCC1)N1CC2(CCN(C3CC4CCC(C3)N4C(=O)O[C@H]3CCOC3)CC2)c2cc(F)ccc21 (stereo partly drawn) [compound 125]
- M4 Activity (M4 muscarinic receptor): xx (activity was measured to be between 0.1 μM and 1.0 μM)
- Emax (M4 muscarinic receptor): < 65%
- M1 Activity (M1 muscarinic receptor): xxx (activity was measured to be less than 0.1 μM)
- Emax (M1 muscarinic receptor): 65 to 85%

Compound: CCOC(=O)N1CCC(N2CCC3(CC2)CN(C(C)=O)c2ccc(-c4ccccc4)cc23)CC1 [compound 126]
- M4 Activity (M4 muscarinic receptor): x (activity was measured to be greater than 1.0 μM)
- Emax (M4 muscarinic receptor): < 65%
- M1 Activity (M1 muscarinic receptor): xxx (activity was measured to be less than 0.1 μM)
- Emax (M1 muscarinic receptor): < 65%
